Structures can show the parent of a compound that is named as a salt.
How the values were obtained:
HCT116 cells = test: Inhibition of cancer cell proliferation (MTT, GIC50); type: cell-based; settings: Homo sapiens, HCT-116, 48 hours incubation
Description: HCT116 cells derived from human colorectal cancer were used, and an effect of a biguanide derivative on the inhibition of cancer cell proliferation was confirmed by measuring a concentration value (cell growth inhibition concentration, GIC50) at which 50% of the cell growth was inhibited using a 3-(4,5-dimethylthiazol-2-yl)-2,5-diphenytetrazolium bromide (MTT) reagent.
First, HCT116 cells were put on a 96-well plate and cultured in a DMEM medium containing 10% bovine serum for 24 hours to each have cell count of approximately 5000. Subsequently, to obtain the GIC50 value of each compound, 100 μM (or 200 μM), 25 μM, 6.25 μM, 1.56 μM or 0.39 μM of the compound was treated to each culture medium and then incubated for 48 hours. To confirm living cells after treatment with the compound, MTT was added to each culture medium and further incubated for 3 hours. Generated formazane crystal was dissolved using dimethyl sulfoxide (DMSO) and absorbance of the solution was measured at 560 nm. After the 48-hour incubation, a ratio of a cell count cultured on a well plate not treated with the compound to a cell count on a well plate treated with compounds synthesized in the examples was indicated as cell viability (%) according to each administered concentration. A cell viability curve was plotted using the cell viability (%), and the calculated concentration value (GIC50) of the compound, at which 50% of the growth was inhibited was, to confirm an effect on the inhibition of cancer cell proliferation.

[1] = test system: 5′-AMP-activated protein kinase (AMPK); test: AMPK activation (AMPKα Thr172 phosphorylation immunoassay) in MCF7 cells; type: cell-based, human; settings: for AMPK Activation (phosphorylated AMPKα Thr172) / fold induction at 50 µM: MCF7 cells; for AMPK Activation (phosphorylated AMPKα Thr172): 24 hours; for fold induction at 50 µM: 24 h, 50 μM vs. 0 (cells without compound)
Description: MCF7 cells derived from human breast cancer cells were used, and an effect of a biguanide derivative on 5′-AMP-activated protein kinase (AMPK) activation was confirmed using an AMPKα immunoassay kit (Invitrogen, catalog No. KHO0651).
The MCF7 cells were put on a 6-well plate and incubated in a DMEM medium containing 10% fetal bovine serum in an incubator to which 5% CO2 was supplied to have a cell count of approximately 5×10^5. 50 μM of derivatives synthesized in the examples were treated to the each culture medium, and the cells were incubated for 24 hours. Subsequently, the cells were lysed by a method presented in the operation manual of the AMPKα immunoassay kit, and 20 μg of cell lysates were yielded through protein assay. A degree of phosphorylation of an AMPKα threonine 172nd residue (Thr172) from the cell lysates were confirmed according to a method presented in the operation manual of the AMPKα immunoassay kit to thereby obtain results.
In addition, an experiment was performed in the same manner as described in Experimental Example 2 using metformin as a control group, and the results of an effect on AMPK activation were compared to the effect on AMPK activation when 1 mM metformin was treated.

Row | Compound | melting point | IC50 (HCT116 cells) | AMPK Activation (phosphorylated AMPKα Thr172) ([1]; 50 μM compound) | fold induction at 50 µM ([1]; Homo sapiens) | AMPK Activation (phosphorylated AMPKα Thr172) ([1]; 1 mM metformin) | fold induction at 1000 µM ([1]; Homo sapiens, MCF7, 24 h, read-out: AMPK Activation fold)
1 | CCCN(CCC)C(=N)NC(=N)Nc1cccc2cnccc12.Cl [Example 33, N1,N1-dipropyl-N5-(isoquinoline-5-yl) Biguanide Hydrochloride] | 191 to 192 °C | > 100 µM | 11.3 | 1.7 | – | –
2 | COC(=O)CCNC(=N)NC(=N)N(C)C.Cl [Example 22, N1,N1-dimethyl-N5-(methoxycarbonylethyl)biguanide Hydrochloride] | 100 to 102 °C | > 200 µM | 3.2 | 0.6 | – | –
3 | CCCCCCN(CCCCCC)C(=N)NC(=N)Nc1cccc(Cl)c1 [Example 34, N1,N1-dihexyl-N5-(3-chloro)phenyl Biguanide Hydrochloride] | – | 7.8 µM | – | – | – | –
4 | CCN(CC)C(=N)NC(=N)N(CC)CC.Cl [Example 35, N1,N1,N5,N5-tetraethyl Biguanide Hydrochloride] | 140 to 141 °C | > 200 µM | 3.8 | 0.7 | – | –
5 | Cl.N=C(NCCc1ccccc1)NC(=N)NCCc1ccccc1 [Example 16, N1,N5-bis(phenethyl) Biguanide Hydrochloride] | 204 to 205 °C | > 100 µM | 4.7 | 0.7 | – | –
6 | Cl.N=C(NCCc1ccccc1)NC(=N)NC1CCCCCC1 [Example 15, N1-(phenethyl)-N5-cycloheptyl Biguanide Hydrochloride] | 135 to 137 °C | 17.2 µM | 7.0 | 1.5 | – | –
7 | CCCCNC(=N)NC(=N)N(C)C.Cl [Example 18, N1,N1-dimethyl-N5-butyl Biguanide Hydrochloride] | 131 to 133 °C | > 200 µM | 4.6 | 0.9 | – | –
8 | CCCN(CCC)C(=N)NC(=N)N(c1ccccc1)c1ccc(O)cc1.Cl [Example 39, N1,N1-dipropyl-N5,N5-(4-hydroxylphenyl)(phenyl) Biguanide Hydrochloride] | 189 to 190 °C | > 100 µM | 28.8 | 4.2 | – | –
9 | CCN(CC)C(=N)NC(=N)N(C)C1CCCCC1.Cl [Example 36, N1,N1-diethyl-N5,N5-(cyclohexyl)(methyl) Biguanide Hydrochloride] | 115 to 117 °C | > 200 µM | 4.5 | 0.8 | – | –
10 | CN(C)C(=N)N=C(N)N [Metformin HCl, reference compound] | – | 2170 µM | – | – | 21.5 (@ 1 mM) | 3.2
11 | CN(C)C(=N)NC(=N)NCc1ccco1.Cl [Example 26, N1,N1-dimethyl-N5-(furan-2-yl)methyl Biguanide Hydrochloride] | 176 to 177 °C | > 200 µM | 8.9 | 1.7 | – | –
12 | Cl.N=C(NC(=N)Nc1cc(Cl)cc(Cl)c1)Nc1cc(Cl)cc(Cl)c1 [Example 10, N1,N5-bis(3,5-dichlorophenyl) Biguanide Hydrochloride] | 250 to 251 °C | 6.3 µM | – | – | – | –
13 | CCCN(CCC)C(=N)NC(=N)Nc1cccc(Cl)c1.Cl [Example 31, N1,N1-dipropyl-N5-(3-chloro)phenyl Biguanide Hydrochloride] | 201 to 202 °C | 7.6 µM | – | – | – | –
14 | Cl.N=C(NC(=N)Nc1ccc(Cl)cc1)Nc1ccc(Cl)cc1 [Example 5, N1,N5-bis(4-chlorophenyl) Biguanide Hydrochloride] | 263 to 264 °C | 3.2 µM | – | – | – | –
15 | CCCNC(=N)NC(=N)NCCc1ccccc1.Cl [Example 13, N1-(phenethyl)-N5-propyl Biguanide Hydrochloride] | 126 to 128 °C | 47.6 µM | 36.2 | 6.8 | – | –
16 | Cl.N=C(NCc1ccccc1)NC(=N)NCc1cccnc1 [Example 12, N1-benzyl-N5-(pyridine-3-yl)methyl Biguanide Hydrochloride] | 138 to 140 °C | > 200 µM | 7.8 | 1.5 | – | –

Row | Compound | melting point | IC50 (HCT116 cells) | AMPK Activation (phosphorylated AMPKα Thr172) ([1]; 50 μM compound) | fold induction at 50 µM ([1]; Homo sapiens) | AMPK Activation (phosphorylated AMPKα Thr172) ([1]; 1 mM metformin) | fold induction at 1000 µM ([1]; Homo sapiens, MCF7, 24 h, read-out: AMPK Activation fold)
17 | CCCN(CC)C(=N)NC(=N)Nc1ccc(Cl)cc1.Cl [Example 32, N1,N1-(ethyl)(propyl)-N5-(4-chloro)phenyl Biguanide Hydrochloride] | 110 to 112 °C | > 200 µM | 5.2 | 1 | – | –
18 | CN(C)C(=N)NC(=N)NC1CCCCCC1.Cl [Example 23, N1,N1-dimethyl-N5-cycloheptyl Biguanide Hydrochloride] | 132 to 133 °C | > 200 µM | 5.4 | 1 | – | –
19 | CN(C)C(=N)NC(=N)Nc1ccc(Br)cc1.Cl [Example 25, N1,N1-dimethyl-N5-(4-bromo)phenyl Biguanide Hydrochloride] | 272 to 273 °C | > 100 µM | 23.1 | 4.4 | – | –
20 | Cl.N=C(NC(=N)Nc1cccc(Cl)c1)Nc1cccc(Cl)c1 [Example 6, N1,N5-bis(3-chlorophenyl) Biguanide Hydrochloride] | 129 to 131 °C | > 100 µM | 4.6 | 0.7 | – | –
21 | CCCCCCNC(=N)NC(=N)NCC1CCCCC1.Cl [Example 3, N1-hexyl-N5-cyclohexylmethyl Biguanide Hydrochloride] | – | > 100 µM | 13.1 | 1.9 | – | –
22 | CN(C)C(=N)NC(=N)NCC1CC1.Cl [Example 24, N1,N1-dimethyl-N5-cyclopropylmethyl Biguanide Hydrochloride] | 117 to 118 °C | > 200 µM | 5.1 | 1 | – | –
23 | CCCCCNC(=N)NC(=N)N(C)C.Cl [Example 21, N1,N1-dimethyl-N5-pentyl Biguanide Hydrochloride] | 131 to 133 °C | > 200 µM | 5.6 | 1.1 | – | –
24 | CN(C)C(=N)NC(=N)NCc1ccccc1.Cl [Example 28, N1,N1-dimethyl-N5-benzyl Biguanide Hydrochloride] | 151 to 152 °C | > 200 µM | 5.9 | 1.2 | – | –
25 | CN(C)C(=N)NC(=N)NC(C)(C)C.Cl [Example 20, N1,N1-dimethyl-N5-t-butyl Biguanide Hydrochloride] | 186 to 187 °C | > 200 µM | 4.6 | 0.9 | – | –
26 | CCCCCCNC(=N)NC(=N)NCc1ccccc1.Cl [Example 4, N1-hexyl-N5-benzyl Biguanide Hydrochloride] | – | 8.4 µM | 15.5 | 6.2 | – | –
27 | Cl.N=C(NC(=N)Nc1ccc(Cl)c(Cl)c1)Nc1ccc(Cl)c(Cl)c1 [Example 9, N1,N5-bis(3,4-dichlorophenyl) Biguanide Hydrochloride] | 255 to 257 °C | 5.9 µM | – | – | – | –
28 | COc1ccc(NC(=N)NC(=N)Nc2ccc(Cl)cc2)cc1 [Example 7, N1-(4-chloro)phenyl-N5-(4-methoxy)phenyl Biguanide Hydrochloride] | – | 18.3 µM | – | – | – | –
29 | Cl.N=C(NC(=N)Nc1ccc(Br)cc1)Nc1ccc(Br)cc1 [Example 11, N1,N5-bis(4-bromophenyl) Biguanide Hydrochloride] | 242 to 243 °C | 3.1 µM | – | – | – | –
30 | COc1ccc(NC(=N)NC(=N)Nc2ccc(OC)c(Cl)c2)cc1Cl.Cl [Example 8, N1,N5-bis(3-chloro-4-methoxyphenyl) Biguanide Hydrochloride] | 203 to 204 °C | 17 µM | – | – | – | –
31 | CCCCCCNC(=N)NC(=N)NCCC.Cl [Example 1, N1-hexyl-N5-propyl Biguanide Hydrochloride] | – | 23.8 µM | 35.6 | 6.7 | – | –

From patent US10376480B2, “Biguanide derivative, a preparation method thereof, and a pharmaceutical composition containing the biguanide derivative as an active ingredient” (Immunomet Therapeutics Inc., priority 2010, dated 2019)
